# According to patent US8236788B2, “Azolylmethyloxiranes, use thereof for controlling plant pathogenic fungi, and agents containing the same” (BASF SE, priority 2006, dated 2012):
# Key:
# Puccinia recondita = assay: Protective activity against brown rust of wheat (Puccrt P1), greenhouse; type: in vivo, Puccinia recondita on wheat seedlings; conditions: 63 ppm active compound, protective spray 1 day before inoculation, assessed visually after further 7 days; untreated plants 90% infected
# Experimental: (§1) The active compounds were prepared separately or jointly as a stock solution comprising 25 mg of active compound which was made up to 10 ml using a mixture of acetone and/or DMSO and the emulsifier Wettol EM 31 (wetting agent having emulsifying and dispersing action based on ethoxylated alkylphenols) in a volume ratio of solvent/emulsifier of 99:1. The mixture was then made up to 100 ml with water. This stock solution was diluted with the solvent/emulsifier/water mixture described to give the concentration of active compounds stated below.
# Leaves of potted wheat seedlings were sprayed to run off point with an aqueous suspension having the active compound concentration stated below. The next day, the treated plants were inoculated with a spore suspension of brown rust of wheat (Puccinia recondita). The plants were then placed in a chamber with high atmospheric humidity (90 to 95%) at 20 to 22° C. for 24 hours. During this time, the spores germinated and the germ tubes penetrated into the leaf tissue. The next day, the test plants were returned to the greenhouse and cultivated at temperatures between 20 and 22° C. and 65 to 70% relative atmospheric humidity for a further 7 days. The extent of the rust fungus development on the leaves was then determined visually.
# Sphaerotheca fuliginea = assay: Activity against mildew on cucumber leaves, protective application (Sphrfu P1), greenhouse; type: in vivo, Sphaerotheca fuliginea on cucumber seedlings; conditions: 63 ppm active compound, protective spray 20 hours before inoculation, assessed visually after 7 days; untreated plants 90% infected
# Experimental: as §1
# At the cotyledon stage, leaves of potted cucumber seedlings were sprayed to run off point with an aqueous suspension having the active compound concentration below. 20 hours after the spray coating had dried on, the plants were inoculated with an aqueous spore suspension of mildew of cucumber (Sphaerotheca fuliginea). The plants were then cultivated in a greenhouse at temperatures between 20 and 24° C. and 60 to 80% relative atmospheric humidity for 7 days. The extent of the mildew development was then determined visually in % infection of the cotyledon area.
smiles,measurement,setting,value
"N#Cc1ccc(C2(Cn3cncn3)OC2c2ccccc2F)c(F)c1 (stereo not drawn) [Compound 69.3, 4-{anti-2-[(1H-1,2,4-triazol-1-yl)methyl]-3-[2-fluorophenyl]oxiran-2-yl}-3-fluorobenzonitrile]",infection (extent of rust fungus development on the leaves),Puccinia recondita,0%
same,infection of the cotyledon area,Sphaerotheca fuliginea,1%
